Assay results from US6635642B1, “PARP inhibitors, pharmaceutical compositions comprising same, and methods of using same” (Guilford Pharmaceuticals Inc., priority 1997, dated 2003).

test system: rabbits; assay: not given; conditions: 1 mg/kg single injection; cited from earlier work

Row | Compound | reduced infarct size
1 | Oc1cccc2c(O)nccc12 [1,5-dihydroxyisoquinoline] | 38-48%

same assay, conditions: 10 mg/kg single injection one minute before occlusion or before reperfusion; cited from earlier work

Row | Compound | reductions in infarct size in the heart
2 | NC(=O)c1cccc(N)c1 [Compound 3-AB, 3-aminobenzamide] | 32-42%

molecular target: T1, purified recombinant human PARP (Homo sapiens, UniProt P09874); assay: PARP enzyme assay ([3H]NAD incorporation, scintillation counting); type: biochemical; conditions: not given
T1 construct: purchased Trevigen (Gaithersburg, Md.)
T1 sequence (P09874 whole entry): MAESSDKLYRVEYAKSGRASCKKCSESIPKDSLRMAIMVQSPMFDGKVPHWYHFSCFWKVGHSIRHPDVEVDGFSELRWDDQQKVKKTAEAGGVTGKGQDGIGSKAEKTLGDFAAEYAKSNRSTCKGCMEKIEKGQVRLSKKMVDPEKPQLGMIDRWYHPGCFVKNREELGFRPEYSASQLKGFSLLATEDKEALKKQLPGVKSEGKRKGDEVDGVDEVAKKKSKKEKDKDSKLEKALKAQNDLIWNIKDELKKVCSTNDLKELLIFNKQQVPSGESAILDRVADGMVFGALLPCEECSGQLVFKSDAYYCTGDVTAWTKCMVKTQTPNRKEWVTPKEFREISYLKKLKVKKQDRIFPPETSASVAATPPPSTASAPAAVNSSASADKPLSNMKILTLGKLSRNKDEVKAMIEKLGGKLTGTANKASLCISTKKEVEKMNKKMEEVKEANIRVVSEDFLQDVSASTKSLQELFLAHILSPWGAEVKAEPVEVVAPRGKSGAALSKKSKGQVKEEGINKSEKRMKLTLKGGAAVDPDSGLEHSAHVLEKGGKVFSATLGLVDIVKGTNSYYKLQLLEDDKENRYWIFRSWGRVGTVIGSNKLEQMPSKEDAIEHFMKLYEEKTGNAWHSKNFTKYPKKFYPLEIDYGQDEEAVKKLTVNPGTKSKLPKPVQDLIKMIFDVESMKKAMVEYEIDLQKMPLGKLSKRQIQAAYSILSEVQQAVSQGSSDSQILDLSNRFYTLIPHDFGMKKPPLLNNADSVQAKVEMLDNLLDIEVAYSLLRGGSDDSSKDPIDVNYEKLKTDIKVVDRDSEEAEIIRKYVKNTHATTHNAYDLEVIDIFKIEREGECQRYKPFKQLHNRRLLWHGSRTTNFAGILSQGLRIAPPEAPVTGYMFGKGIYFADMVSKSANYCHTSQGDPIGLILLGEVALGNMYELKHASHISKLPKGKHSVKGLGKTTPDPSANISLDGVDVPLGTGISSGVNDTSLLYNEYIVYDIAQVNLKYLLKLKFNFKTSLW
Procedure: The reaction was initiated by incubating the mixture at 25° C. After 15 minutes' incubation, the reaction was terminated by adding 500 microliters of ice cold 20% (w/v) trichloroacetic acid. The precipitate formed was transferred onto a glass fiber filter (Packard Unifilter-GF/B) and washed three times with ethanol. After the filter was dried, the radioactivity was determined by scintillation counting.

Row | Compound | IC50 [µM]
3 | O=C1NCCc2c(OCCCCN3CCCCC3)cccc21 [drawing 52] | 1.9
4 | O=C1NCc2cccc3cccc1c23 | 0.54
5 | Nc1ccc2c3c(cccc13)C(=O)NC2=O | 0.09

same assay, conditions: PARP inhibition; unit given as uM; read-out: Approximate IC50's

Row | Compound | IC50 [µM]
6 | NC(=O)c1cccc2cccc(C(=O)O)c12 [drawing 17] | 0.25
7 | O=c1[nH]c(-c2ccccc2)cc2ccccc12 | 1.3
8 | O=c1[nH]ccc2c([N+](=O)[O-])cccc12 | 3.4
9 | O=C1NCC([N+](=O)[O-])c2ccccc21 (stereo not shown) | 1.6

same assay, conditions: PARP inhibition; unit inferred; read-out: Approximate IC50's

Row | Compound | IC50 [µM]
10 | Nc1cccc2c1[nH]c(=O)c1ccccc12 | 0.76
11 | Nc1cccc2[nH]c(=O)c3ccccc3c12 | 0.1
12 | O=c1[nH]nc2c3c(cccc13)CCc1ccccc1-2 | 0.4
13 | O=C1NC(=O)c2cc(O)cc3cccc1c23 | 0.81
14 | CN(C)c1ccc(-c2n[nH]c(=O)c3ccccc23)cc1N | 0.22
15 | O=C(O)c1cccc2[nH]c(=O)c3ccccc3c12 | 5.1
16 | O=c1[nH]cc(Br)c2c(O)cccc12 | 0.6
17 | Nc1ccc2c(c1)-c1n[nH]c(=O)c3cccc(c13)O2 | 0.046
18 | Nc1ccc2c(c1)-c1n[nH]c(=O)c3cccc-2c13 | 0.068
19 | O=c1[nH]nc2c3c(cccc13)-c1ccccc1-2 | 0.14
20 | O=c1[nH]nc(CN2CCN(c3ccc(Cl)cc3)CC2)c2ccccc12 | 1.3
21 | O=c1[nH]nc(CN2CCN(c3ccccc3)CC2)c2ccccc12 | 4
22 | CN(C)c1ccc2c(c1)[nH]c(=O)c1ccccc12 | 0.31
23 | O=C1NC(=O)c2ccc(S(=O)(=O)O)c3cccc1c23 | 4
24 | O=C1NCC2c3ccccc3Oc3cccc1c32 (stereo not shown) | 0.2
25 | O=c1[nH]nc2c3c(cccc13)Oc1ccccc1-2 | 0.08
26 | CN(C)c1ccc(-c2n[nH]c(=O)c3ccccc23)cc1[N+](=O)[O-] | 0.68
27 | O=c1[nH]nc2c3c(cccc13)Oc1ccc([N+](=O)[O-])cc1-2 | 0.062
28 | O=c1[nH]nc2c3c(cccc13)-c1ccc([N+](=O)[O-])cc1-2 | 0.056
29 | NC(=O)c1cccc2cccc(C(=O)O)c12 [drawing 59] | 0.25
30 | O=c1[nH]nc(-c2ccc(N3CCCCC3)c([N+](=O)[O-])c2)c2ccccc12 | 0.3
31 | O=c1[nH]nc2c3c(cccc13)Sc1ccccc1-2 | 0.11
32 | COC(=O)c1c[nH]c(=O)c2ccccc12 | 1.1
33 | O=c1[nH]c2cc([N+](=O)[O-])ccc2c2ccccc12 | 0.16
34 | O=C1NCC(c2ccccc2)Oc2ccccc21 (stereo not shown) | 1.9
35 | O=C1NC(=O)c2ccc(Cl)c3cccc1c23 | 0.46
36 | O=c1[nH]nc(-c2ccc(Cl)cc2)c2ccccc12 | 0.36
37 | O=C1NC(=O)c2ccc(SCCO)c3cccc1c23 | 2.8
38 | O=C1CNC(=O)c2cc(Cl)ccc2N1 | 1.6

same assay, conditions: PARP inhibition; unit μM; read-out: Approximate IC50's

Row | Compound | IC50 [µM]
39 | O=c1[nH]c2ccc([N+](=O)[O-])cc2c2ccccc12 | 0.9
40 | O=c1[nH]c2cc3ccccc3cc2c2ccccc12 | 100
41 | Nc1ccc2c(c1)[nH]c(=O)c1ccccc12 | 4
42 | O=c1[nH]c2ccc(Cl)cc2c2ccccc12 | 0.7
43 | O=c1[nH]c2ccc(Br)cc2c2ccccc12 | 1.1
44 | O=c1[nH]c2cc(F)ccc2c2ccccc12 | 0.2
45 | O=c1[nH]c2ccccc2c2ccccc12 | 5.2

test system: not given; assay: not given; conditions: in vivo; cited from earlier work

Row | Compound | delayed, NO-mediated vascular failure in endotoxic shock
46 | NC(=O)c1cccnc1 [nicotinamide] | protects against delayed, NO-mediated vascular failure

test system: human fibroblast cells lines (either W138 or BJ cells); assay: Extending proliferative capacity and lifespan of cells; type: cell-based; conditions: 10 uM; untreated cells stop dividing after about 40 days
Procedure: At the time of subdivision, the media is aspirated, and the cells rinsed with phosphate buffer saline (PBS) and then trypsinized. The cells are counted with a Coulter counter and plated at a density of 10^5 cells per cm^2 in 6-well tissue culture plates in DMEM/199 medium supplemented with 10% bovine calf serum and varying amounts (0.10 uM, and 1 mM: from a 100×stock solution in DMEM/M199 medium) of a PARP inhibitor of Formula I as disclosed herein. This process is repeated every 7 days until the cell appear to stop dividing. The untreated (control) cells reach senescence and stop dividing after about 40 days in culture. […] The cells treated with 1 mM 3-AB will still divide after 60 days in culture.

Row | Compound | effect on lifespan of the cells
47 | NC(=O)c1cccc(N)c1 [Compound 3-AB, 3-aminobenzamide] | little or no effect

same assay, conditions: 100 uM; untreated cells stop dividing after about 40 days

Row | Compound | effect on lifespan of the cells
48 | NC(=O)c1cccc(N)c1 [Compound 3-AB, 3-aminobenzamide] | lengthen the lifespan of the cells

same assay, conditions: 1 mM; untreated cells stop dividing after about 40 days

Row | Compound | effect on lifespan and proliferative capacity of the cells | time in culture at which cells still divide [days]
49 | NC(=O)c1cccc(N)c1 [Compound 3-AB, 3-aminobenzamide] | dramatically increases the lifespan and proliferative capacity of the cells | > 60

test system: rats; assay: not given; conditions: trinitrobenzene sulfonic acid in 50% ethanol; cited from earlier work

Row | Compound | inflammatory response in colitis
50 | NC(=O)c1cccc(N)c1 [Compound 3-AB, 3-aminobenzamide] | reduced the inflammatory response

test system: male Long-Evans rats; assay: Focal cerebral ischemia (right distal MCA cauterization with bilateral temporary CCA occlusion), infarct volume by TTC staining; conditions: in vivo administration, focal cerebral ischemia model in the rat
Procedure: Focal cerebral ischemia was produced by cauterization of the right distal MCA (middle cerebral artery) with bilateral temporary common carotid artery occlusion in male Long-Evans rats for 90 minutes. All procedures performed on the animals were approved by the University Institutional Animal Care and Use Committee of the University of Pennsylvania. A total of 42 rats (weights: 230-340 g) obtained from Charles River were used in this study. The animals fasted overnight with free access to water prior to the surgical procedure.
Two hours prior to MCA occlusion, varying amounts (control, n=14; 5 mg/kg, n=7; 10 mg/kg, n=7; 20 mg/kg, n=7; and 40 mg/kg, n=7) of the compound, 3,4-dihydro-5-[4-(1-piperidinyl)-butoxy]-1(2H)-isoquinolinone (“DPQ”) were dissolved in dimethyl sulfoxide (DMSO) using a sonicator. […]
Two hours after MCA occlusion, the animals were given the same doses of the PARP inhibitor as in the pre-treatment. […] To avoid artifacts due to edema, the-damaged area was calculated by subtracting the area of the normal tissue in the hemisphere ipsilateral to the stroke from the area of the hemisphere contralateral to the stroke, by the method of Swanson et al., “A Semiautomated Method for Measuring Brain Infarct Volume”, J. Cereb. […] The total volume of infarction was calculated by summation of the damaged volume of the brain slices.

Row | Compound | effect on infarct volume, overall
51 | O=C1NCCc2c(OCCCCN3CCCCC3)cccc21 [DPQ, 3,4-dihydro-5-[4-(1-piperidinyl)-butoxy]-1(2H)-isoquinolinone] | substantial reduction in infarct volume
